# Measurements: patent publication US20050118226A1, “Methods for treating ACAT-related diseases” (priority 2003, published 2005)
# How the values were obtained:
# endogenous APP = experiment: Western blot of endogenous APP processing in brains of non-transgenic littermates; type: in vivo, mouse
# Protocol: For Western blot analyses, frozen hemispheres of non-transgenic littermates were homogenized in TBS buffer containing 5 mM EDTA, 1 mM 1,10-phenanthroline (ICN Biomedicals), 20 μM ALLN (BioMol) and a protease inhibitor mixture (Roche). Homogenates were centrifuged at 100000 g for 1 hour at +4° C. The supernatants were used for analyses of secreted APP forms and ApoE, while the pellets extracted with the homogenization buffer containing 1% Triton X-100 and 0.2% SDS. 120 μg of total protein were resolved on 4-12% or 12% NuPAGE Bis-Tris gels (Invitrogen) under reducing conditions, and Western blots were performed as described previously (Puglielli et al., 2001). For analysis of Notch-ICD (NICD), 250 μg of total protein was immunoprecipitated with an NICD-specific antibody (cleavage site (Val1744)-specific; Cell Signaling Technology) according to manufacturer's recommendations. Antibodies used for Western blots were R1736 (specific for sAPP-α; a gift from Dr. D. J. Selkoe, Brigham and Women's Hospital, Boston, Mass.), Abl4 (PS 1-NTF; a gift from Dr. S. E. Gandy, Thomas Jefferson University, Philadelphia, Pa.), Pen2 (a gift from Dr. S. S. Sisodia, University of Chicago, Chicago, Ill.), N-Cadherin (C32, C-terminal; BD Transduction Laboratories), ApoE (Santa Cruz Biotechnology), β-tubulin (Sigma), BACE1 and Nicastrin (Affinity BioReagents). Rbt×APP (CTF), 22C11 (APP-NTF) and Rbt×PSI (PS 1-CTF) were from Chemicon International. BACE stainings (N-terminal; Affinity BioReagents) were confirmed with two additional antibodies; Ms×BACE1 (Chemicon International) and BACE (C-terminal; Affinity BioReagents). Densitometric analyses were performed using the QuantityOne software package (Bio-Rad). Statistical significance was determined by Student's t test. For Western blot analyses shown in supplemental figures, neutralized formic acid fractions (approximately 100 μg of total protein) were precipitated by adding 50% trichloroacetic acid to 15.5% final concentration. After 30 min incubation and centrifugation at 4° C., the pellets were solubilized by adding 10 μl of 2M Tris base and 10 μl of 4×LDS-PAGE loading buffer (NuPage, Invitrogen). Before loading, the samples were incubated for 30 min at 37° C., freeze-thawed once and boiled. Western blot analysis was performed as described above.
# Our previous cell-based studies have shown that ACAT inhibition reduces Aβ generation and alters APP processing by all three secretases (Puglielli et al., 2001). To determine whether CP-113,818 treatment modified brain APP processing in hAPP mice, we initially resolved formic acid-extracted brain proteins by SDS-PAGE to detect APP and its proteolytic derivatives. […]
# amyloid plaques = experiment: Brain plaque load in hAPP mice (thioflavin S and 6E10 Aβ staining); type: in vivo, mouse
# Protocol: For histomorphological analyses, 8 to 15 histological sections (10 μm) were prepared from one hemisphere of 12 animals (6 placebo, 6 CP-113,818; 3 male, 3 female per group). Number and surface area of amyloid plaques were evaluated in both cortex and hippocampus. 6E10 (Signet; 1:5000; monoclonal) as primary antibody, and Cy™3 fluorescent goat anti-mouse IgG as secondary antibody (Jackson Immuno Research) were used for Aβ staining. Sections of the same brains were also used for synaptophysin staining (Chemicon; 1:5000; monoclonal). Synaptophysin immunoreactive spots were counted by light microscopy in the hippocampal CA1 region. The estimation of immunohistochemical reactions was done by computer-assisted quantification (IMAGE PRO PLUS, Media Cybernetics).
# Brain plaque load was evaluated by thioflavin S and immunohistochemical stainings (FIG. 3). Thioflavin S-positive plaques were barely detectable in the cortex of hAPP mice at 6.5 months of age and absent in CP-113,818-treated animals (FIG. 2A). […] Individual differences in amyloid load reflected the well-known variability in Aβ accumulation that has been previously observed in transgenic mice, specifically at early stages of pathology (Johnson-Wood et al., 1997; Kawarabayashi et al., 2001). Amyloid load in the cortex of female animals was two-fold higher than in males, in agreement with previous studies in other mouse models of AD (Callahan et al., 2001; Lee et al., 2002; Wang et al., 2003). The hippocampus, slower than the cortex in developing amyloid pathology in hAPP mice, contained significant numbers of Aβ deposits only in female, but not in male, animals (FIG. 3B and FIG. 4). […] Importantly, when the two genders were considered separately, plaque numbers were reduced to an equal extent in females and males, by 89%, p<0.00002, and 88%, p<0.0002, respectively (FIG. 3B). […] In females the decrease was from 0.45 to 0.04 percent plaque load (p<0.00002), while in males it was from 0.10 to 0.02 (p<0.00013; FIG. 4B). As mentioned above, amyloid load in the hippocampus of male animals was too low at this age for reliable assessment of changes caused by CP-113,818.
smiles,measurement,setting,value
"CCCCCCCC[C@H](SCCCCCC)C(=O)Nc1c(SC)cc(C)nc1SC [CP-113,818]",decrease in the ratio between total sAPP and sAPPα,endogenous APP,36%
same,decrease of endogenous mouse APP-CTF levels,"endogenous APP; brain lysates, normalized to APP holoprotein, vs placebo",44%
same,reduction of total sAPP,endogenous APP; soluble TBS fraction,19.1%
same,decrease of sAPPα,"endogenous APP; soluble TBS fraction, trend, n.s.",3.4%
same,"reduction of cortical plaque number, females","amyloid plaques; female hAPP mice, cortex, 6E10 staining, 57 days",89%
same,cortical plaque numbers / Aβ staining at beginning versus end of treatment,"amyloid plaques; female hAPP mice, cortex, day 0 without vs day 57 with treatment",remarkably similar
same,"percent plaque load in cortex after treatment, females","amyloid plaques; female hAPP mice, cortex, placebo 0.45",0.04%
same,decrease of plaque number in the hippocampus of female mice,"amyloid plaques; female hAPP mice, hippocampus, 57 days",99%
same,"percent plaque load in hippocampus after treatment, females","amyloid plaques; female hAPP mice, hippocampus, placebo 0.295",0.09%
same,thioflavin S-positive plaques in the cortex,amyloid plaques; hAPP mice at 6.5 months of age,absent
same,reduction of cortical plaque number,"amyloid plaques; hAPP mice, all animals, cortex, 6E10 staining, 57 days",88%
same,decrease of plaque burden (percent of cortex covered by plaques),"amyloid plaques; hAPP mice, all animals, cortex, 57 days",90%
same,"reduction of cortical plaque number, males","amyloid plaques; male hAPP mice, cortex, 6E10 staining, 57 days",88%
same,"percent plaque load in cortex after treatment, males","amyloid plaques; male hAPP mice, cortex, placebo 0.10",0.02%
